Results published in US20240246941A1, “SUBSTITUTED 4-(3-AMINOPROP-1-YL)AMINOQUINOLINE ANALOGS AS MODULATORS OF MELANOMA-ASSOCIATED ANTIGEN 11 UBIQUITIN LIGASE” (ST. JUDE CHILDREN'S RESEARCH HOSPITAL, INC., priority 2020, published 2024).
Where two headings read alike, the source gives them in different places.

Biological target: interaction between GST-MAGEA11 MHD and FAM-PCF11_4 peptide (MAGE-A11:PCF11) (Homo sapiens (Human), UniProt P43364)
Assay: TR-FRET dose response competition assay for disruption of MAGE-A11:PCF11 binding
Excerpt: TR-FRET Assays and High-throughput Screen. Terbium-anti-GST antibody, 1 M Tris pH 7.5 1 M MgCl2 and 1 M DTT were purchased from Invitrogen (Carlsbad, CA), BSA was purchased from Sigma (St. Louis, MO). Dimethyl sulfoxide (DMSO) was purchased from Fisher Scientific (Pittsburgh, PA). Black 384-well low volume plates and 384-well polypropylene compound plates were purchased from Corning Incorporated (Tewksbury, MA). The St. Jude FDA drug and Bioactive library (11,293 chemicals), Drug-like library (10,073 chemicals) and Lead-like library (10,041 chemicals) were custom assembled and purchased from commercial sources including Sigma, Microsource (Gaylordsville, CT), selleckchem (Houston, TX), ChemDiv (San Diego, CA), ChemBridge (San Diego, CA), Enamine (Monmouth Jct., NJ), and Life Chemicals (Niagara-on-the-Lake, ON, Canada). They were arrayed (10 mM in DMSO) in 384-well polypropylene compound plates with columns 1, 2, 13 and 14 empty which were reserved for controls.
The TR-FRET assay buffer with a formula of 50 mM Tris pH 7.5, 20 mM MgCl2, 0.1 mg/ml BSA and 1 mM DTT was freshly prepared before each experiment. All TR-FRET assays were performed in black 384-well plates with 20 μl/well assay volume in the TR-FRET assay buffer at room temperature (approximately 25° C.). All peptides or compounds were solubilized in DMSO. To test the competitive activity of peptides or compounds against the interaction between GST-MAGEA11 MHD and FAM-PCF11_4 peptide, 10 μl/well peptide or compound at specified concentration was dispensed into a black 384-well low volume plate, followed by 5 μl/well FAM-PCF11_4 (800 nM), 5 μl/well Tb-anti-GST (20 nM) and GST-MAGEA11 MHD (20 nM). The assay components in each well was then mixed by shaking the plate on an IKA MTS 2/4 digital microtiter plate shaker (IKA Works; Wilmington, NC, USA) at 900 RPM for 1 minute. The plate was further centrifuged in an Eppendorf 5810 centrifuge with an A-4-62 swing-bucket rotor (Eppendorf AG, Hamburg, Germany) at 201 g (1000 rpm) for 30 seconds. The plate was then incubated for 90 min with a lid to avoid light exposure to the assay components. After incubation, the fluorescent emission signals at 520 nm and 490 nm channels of individual wells were measured with a PHERAstar FS plate reader (BMG Labtech; Durham, NC, USA) by using a 340 nm excitation filter, 100 μs delay time, and 200 μs integration time. The TR-FRET fluorescence emission ratio (TR-FRET signal) for each well was presented as 10 000×520 nm/490 nm, which was used directly for curve fitting, or further converted to % Inhibition based on the respective positive and negative controls. The graphic software GraphPad Prism 4.81 (GraphPad Software; La Jolla, CA, USA) was used to generate curves and derive IC50 values of tested peptides or compounds, if applicable.
TR-FRET inhibitory activity characterization of a panel of PCF11 peptides against the interaction between GST-MAGEA11 MHD and FAM-PCF11_4 was performed as follows. In a 20 μl/well assay volume, dilutions of PCF11_1 to PCF11_8 peptides (concentrations ranged from 3.1 nM to 100 μM for peptides PCF11_4, PCF11_5, PCF11_6 and PCF11_8 in a 1-to-2 dilution pattern for 16 concentration levels, and ranged from 48.9 nM to 100 μM for peptides of PCF11_1, PCF11_2, PCF11_3 and PCF11_7 in a 1-to-2 dilution pattern for 12 concentration levels), 200 nM FAM-PCF11_4, 5 nM Tb-anti-GST and 5 nM GST-MAGEA11 were mixed together and incubated for 90 min before the TR-FRET signal for each well was measured. The final DMSO concentration was 1.1% (v/v). […] The signal of each peptide-treated well (Signalpeptide) was normalized to the positive and negative controls to derive % inhibition of the peptide at a specific concentration with equation 1. Where applicable, the % Inhibition data were fit into a Sigmoidal dose response equation to derive IC50 values.
TR-FRET screen for identifying MAGEA11 small molecule inhibitors was performed as follows.

[1] = Dose response TR-FRET screening of nine scaffold groups against MAGE-A11:PCF11, read-out: consensus IC50
[2] = Table 8, representative compounds, read-out: TR-FRET IC50

Sequence of interaction between GST-MAGEA11 MHD and FAM-PCF11_4 peptide (MAGE-A11:PCF11) (P43364 218-429): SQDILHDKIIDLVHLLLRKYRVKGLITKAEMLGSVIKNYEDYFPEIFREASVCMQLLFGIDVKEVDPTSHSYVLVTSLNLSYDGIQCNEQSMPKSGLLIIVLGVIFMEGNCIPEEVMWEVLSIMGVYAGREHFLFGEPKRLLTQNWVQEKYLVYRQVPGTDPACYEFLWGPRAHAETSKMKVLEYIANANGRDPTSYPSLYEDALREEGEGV

Cc1ccc(S(=O)(=O)c2nc(-c3ccccc3Br)oc2N2CCOCC2)cc1 [SJ000185415-1]
IC50 [1]: 69.9 µM

Cc1cc(C)nc(Nc2nc(N)c3ccccc3n2)n1 [SJ000189299-1]
IC50 [1]: 69.9 µM

Cc1ccccc1Nc1nc(N)c2ccccc2n1 [SJ000192476-1]
IC50 [1]: 69.9 µM

COc1ccccc1Nc1nc(N)c2ccccc2n1 [SJ000192505-1]
IC50 [1]: 69.9 µM

Nc1nc(Nc2ccccc2O)nc2ccccc12 [SJ000192933-1]
IC50 [1]: 69.9 µM

Cc1ccc(C)c(Nc2nc(N)c3ccccc3n2)c1 [SJ000192944-1]
IC50 [1]: 69.9 µM

CCOc1ccc(-c2nc(S(=O)(=O)c3ccccc3)c(N3CCOCC3)o2)cc1 [SJ000198209-1]
IC50 [1]: 69.9 µM

COc1ccc(Cl)cc1Nc1nc(N)c2ccccc2n1 [SJ000200999-1]
IC50 [1]: 69.9 µM

Cc1ccc(Nc2nc(N)c3ccccc3n2)cc1Cl [SJ000201287-1]
IC50 [1]: 69.9 µM

Nc1nc(Nc2ccc(Cl)c(Cl)c2)nc2ccccc12 [SJ000201376-1]
IC50 [1]: 69.9 µM

COc1ccc(C)cc1Nc1nc(N)c2ccccc2n1 [SJ000201566-1]
IC50 [1]: 69.9 µM

COc1ccc(OC)c(Nc2nc(N)c3ccccc3n2)c1 [SJ000202008-1]
IC50 [1]: 69.9 µM

Cc1ccc(Nc2nc(N)c3ccccc3n2)cc1C [SJ000202381-1]
IC50 [1]: 69.9 µM

CCN1CCN(c2nc(N)c3ccccc3n2)CC1 [SJ000202571-1]
IC50 [1]: 69.9 µM

CC(C)c1ccc(-c2nc3c(=O)n(C)c(=O)n(C)c3[nH]2)cc1 [SJ000203904-1]
IC50 [1]: 69.9 µM

CCCOc1ccc(-c2nc3c(=O)n(C)c(=O)n(C)c3[nH]2)cc1 [SJ000205042-1]
IC50 [1]: 69.9 µM

O=S(=O)(c1ccccc1)c1nc(-c2ccc(Cl)cc2)oc1N1CCOCC1 [SJ000230691-1]
IC50 [1]: 69.9 µM

O=S(=O)(c1ccc(Cl)cc1)c1nc(-c2ccc(Cl)cc2)oc1N1CCOCC1 [SJ000230692-1]
IC50 [1]: 69.9 µM

Cc1ccc(S(=O)(=O)c2nc(-c3ccc(Cl)cc3)oc2N2CCOCC2)cc1 [SJ000230693-1]
IC50 [1]: 69.9 µM

Cc1ccc(S(=O)(=O)c2nc(-c3ccc(F)cc3)oc2N2CCOCC2)cc1 [SJ000230854-1]
IC50 [1]: 11.7 µM

Cc1ccc(S(=O)(=O)c2nc(-c3ccc(Br)cc3)oc2N2CCOCC2)cc1 [SJ000230855-1]
IC50 [1]: 69.9 µM

Cc1ccc(S(=O)(=O)c2nc(-c3ccccc3Cl)oc2N2CCOCC2)cc1 [SJ000230856-1]
IC50 [1]: 4.34 µM

O=C1C(Cl)=C(N2CCOCC2)C(=O)c2ccccc21 [SJ000242799-1]
IC50 [1]: 69.9 µM

O=S(=O)(c1ccccc1)c1nc(-c2ccc(Br)cc2)oc1N1CCOCC1 [SJ000244320-1]
IC50 [1]: 8.63 µM

CC(NC1=C(Cl)C(=O)c2ccccc2C1=O)C(=O)O (stereo not shown) [SJ000244608-1]
IC50 [1]: 69.9 µM

CC(C)C(NC1=C(Cl)C(=O)c2ccccc2C1=O)C(=O)O (stereo not shown) [SJ000244609-2]
IC50 [1]: 587 µM

COc1ccc(-c2nc(S(=O)(=O)c3ccc(C)cc3)c(N3CCOCC3)o2)cc1 [SJ000245271-1]
IC50 [1]: 69.9 µM

COc1ccc(OC)c2c(O)c(CN3CCCCC3C)c(C)nc12 (stereo not shown) [SJ000280708]
IC50 [2]: > 69.9 µM

COc1ccc(OC)c2c(O)cc(C)nc12 [SJ000284975]
IC50 [2]: > 69.9 µM

CS(=O)(=O)c1ccc(C2=C(c3ccccc3)C(=O)OC2)cc1 [SJ000285362-5]
IC50 [1]: 67.6 µM

CC[C@@]1(O)C(=O)OCc2c1cc1n(c2=O)Cc2cc3ccccc3nc2-1 [SJ000285410]
IC50 [2]: > 55.2 µM

Nc1c2ccccc2nc2ccccc12 [SJ000285450]
IC50 [2]: > 75.5 µM

COc1cc(NC(C)CCCN)c2ncccc2c1 (stereo not shown) [SJ000285544]
IC50 [2]: 19 µM

COc1cc2nc(N(C)CCCNC(=O)C3CCCO3)nc(N)c2cc1OC (stereo not shown) [SJ000286094-9]
IC50 [1]: 36.2 µM

C=CCn1c(=O)c2c(nc(-c3ccc(S(=O)(=O)O)cc3)n2C)n(C)c1=O [SJ000287614-4]
IC50 [1]: 75.1 µM

Cn1c(=O)c2nc(-c3ccc(S(=O)(=O)O)cc3)[nH]c2n(C)c1=O [SJ000287642-4]
IC50 [1]: 21.8 µM

CCCn1c(=O)c2nc(-c3ccc(S(=O)(=O)O)cc3)[nH]c2n(CCC)c1=O [SJ000287650-2]
IC50 [1]: 69.9 µM

CCCn1c(=O)c2nc(-c3ccc(OCC(=O)Nc4ccc(C#N)cc4)cc3)[nH]c2n(CCC)c1=O [SJ000287997-2]
IC50 [1]: 69.9 µM

Cn1c(=O)c2nc(-c3ccccc3)[nH]c2n(C)c1=O [SJ000288094-2]
IC50 [1]: 69.9 µM

COc1cc2nc(N3CCN(C(=O)OCc4ccccc4)C(C(=O)NC(C)(C)C)C3)nc(N)c2cc1OC (stereo not shown) [SJ000288233-2]
IC50 [1]: 69.9 µM

CCCn1c(=O)c2nc(-c3ccc(OCC(=O)NCCN)cc3)[nH]c2n(CCC)c1=O [SJ000288288-2]
IC50 [1]: 69.9 µM

Cn1c2ccccc2c2cc(C3Nc4ccccc4C(=O)N3Cc3ccccc3)ccc21 (stereo not shown) [SJ000288408-1]
IC50 [1]: 69.9 µM

CCCN1C(=O)c2ccccc2NC1c1cccc(F)c1 (stereo not shown) [SJ000288416-1]
IC50 [1]: 69.9 µM

COc1ccc(C2Nc3ccccc3C(=O)N2Cc2ccccc2)cc1Cn1nc(C)c([N+](=O)[O-])c1C (stereo not shown) [SJ000288419-1]
IC50 [1]: 69.9 µM

CCCN1C(=O)c2ccccc2NC1c1ccc(C)cc1 (stereo not shown) [SJ000288423-2]
IC50 [1]: 69.9 µM

CCCN1C(=O)c2ccccc2NC1c1ccc(Cl)cc1Cl (stereo not shown) [SJ000288424-2]
IC50 [1]: 69.9 µM

CCCN1C(=O)c2ccccc2NC1c1ccc(OC)c(COc2ccc([N+](=O)[O-])cc2)c1 (stereo not shown) [SJ000288430-1]
IC50 [1]: 69.9 µM

CCOc1cc(C2Nc3ccccc3C(=O)N2Cc2ccccc2)ccc1O (stereo not shown) [SJ000288432-1]
IC50 [1]: 69.9 µM

COc1ccc(C2Nc3ccccc3C(=O)N2Cc2ccccc2)cc1Cn1cc([N+](=O)[O-])cn1 (stereo not shown) [SJ000288433-1]
IC50 [1]: 69.9 µM

CCCN1C(=O)c2ccccc2NC1c1ccc(OC)c(CSc2ccccn2)c1 (stereo not shown) [SJ000288444-1]
IC50 [1]: 69.9 µM

CCCN1C(=O)c2ccccc2NC1c1ccccc1F (stereo not shown) [SJ000288611-1]
IC50 [1]: 69.9 µM

O=C1c2ccccc2NC(c2ccc3c(c2)OCO3)N1Cc1ccccc1 (stereo not shown) [SJ000288627-1]
IC50 [1]: 69.9 µM

COc1ccc(C2Nc3ccccc3C(=O)N2Cc2ccccc2)cc1Cn1nc(C)c(Cl)c1C (stereo not shown) [SJ000288637-1]
IC50 [1]: 69.9 µM

CCCN1C(=O)c2ccccc2NC1c1ccc2c(c1)OCO2 (stereo not shown) [SJ000288667-1]
IC50 [1]: 69.9 µM

CC(=O)N(C)C1=C(Cl)C(=O)c2ccccc2C1=O [SJ000290718-2]
IC50 [1]: 69.9 µM

NC1=C(N2CCCCC2)C(=O)c2ccccc2C1=O [SJ000294373-2]
IC50 [1]: 20.1 µM

CCCN1C(=O)c2ccccc2NC1c1c(Cl)cccc1Cl (stereo not shown) [SJ000295321-1]
IC50 [1]: 69.9 µM

COc1ccc(C2Nc3ccccc3C(=O)N2Cc2ccccc2)cc1COc1ccccc1F (stereo not shown) [SJ000295328-2]
IC50 [1]: 69.9 µM

COc1ccc(C2Nc3ccccc3C(=O)N2Cc2ccccc2)cc1CN1C(=O)c2ccccc2C1=O (stereo not shown) [SJ000295698-1]
IC50 [1]: 69.9 µM

COc1cccc(OCc2cc(C3Nc4ccccc4C(=O)N3Cc3ccccc3)ccc2OC)c1 (stereo not shown) [SJ000295704-1]
IC50 [1]: 69.9 µM

CCCN1C(=O)c2ccccc2NC1c1ccc(O)c(OC)c1 (stereo not shown) [SJ000295722-1]
IC50 [1]: 69.9 µM

CCCN1C(=O)c2ccccc2NC1c1ccc(OC)c(COc2ccccc2F)c1 (stereo not shown) [SJ000295736-1]
IC50 [1]: 69.9 µM

CCCN1C(=O)c2ccccc2NC1c1ccc(OC)c(COc2ccc([N+](=O)[O-])c(C)c2)c1 (stereo not shown) [SJ000295745-1]
IC50 [1]: 69.9 µM

CCCN1C(=O)c2ccccc2NC1c1ccc(Cl)c(Cl)c1 (stereo not shown) [SJ000296071-1]
IC50 [1]: 69.9 µM
